Results as given in US20160052926A1, “NOVEL PYRIMIDINE AND PYRIDINE COMPOUNDS AND USAGE THEREOF” (HUTCHISON MEDIPHARMA LIMITED, priority 2013, published 2016).

Key:
Recombinant human FGFR2 = Recombinant human FGFR2 (Homo sapiens, UniProt P21802); experiment: Transcreener Kinase Assay of FGFR2; format: biochemical; conditions: read-out: FGFR2 (FP) IC50
FGFR3 kinase = FGFR3 kinase (Homo sapiens, UniProt P22607); experiment: Z-Lyte Kinase Assay of FGFR3; format: biochemical
Summary of the method: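 Kinase at 0.7 μg/ml with 4 μM Z-LYTE Tyr 4 peptide and ATP diluted to 300 uM (working solution, 1.33× buffer); compounds 1–0.00046 μM, 2% DMSO final. Kinase reaction and development each 1 h at RT (25-30[…]); coumarin (445 nm) and fluorescein (520 nm) emission read, inhibition from % phosphorylation.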

RT-112 = experiment: Cellular Proliferation Assay (Cell Counting Kit-8), RT-112; format: cell-based; conditions: Homo sapiens, RT-112 cells, 72 hours
Protocol: Cellular Proliferation Assay
• KG-1 (ATCC Accession No. CCL-246), • SNU-16 (ATCC Accession No. CRL-5974), • RT-112 (ECACC Accession No. 85061106)
• FGFR related cancer cell proliferation is measured in 96-well plates using Cell Counting Kit-8 (Dojindo CK04-13). • Seed 30000 cells/well of KG1, 5000 cells/well of SNU16, and 1000 cells/well of RT112 in a volume of 100 μL/well in growth media. • After 24 hours, dilute the compound to 10, 3.3, 1.1, 0.37, 0.12, 0.04, 0.013, 0.004 μM, keeping the DMSO concentration at 5%. • Add 10 μL of 8-point compound series to the wells of culturing cells. • Incubate at 37° C. and 5% CO2 for 72 hours • Add 10 μL/well of CCkit8 and incubate at 37° C. and 5% CO2 for an hour • Detect the optical density of each well at 450 nm on Labsystems Multiskan K3.
• ODcompound well represents the optical density of cells treated with compound. • ODcell well represents the optical density of cells without compounds treatment. (only 0.5% DMSO) • ODcontrol well represents the optical density of culture media background
The concentration of compound providing 50% of proliferation inhibition was calculated using Excel Fit.

Recombinant human FGFR1 = Recombinant human FGFR1 (Homo sapiens, UniProt P11362); experiment: Transcreener Kinase Assay of FGFR1; format: biochemical; conditions: read-out: FGFR1 (FP) IC50
KG-1 = experiment: Cellular Proliferation Assay (Cell Counting Kit-8), KG-1; format: cell-based; conditions: Homo sapiens, KG1 cells, 72 hours
Summary of the method: (§1)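 Seeding was 30,000 (KG-1), 5,000 (SNU-16) or 1,000 (RT-112) cells per well, with compound added 24 h later. Dilutions were prepared as an 8-point series of 10 to 0.004 μM in 5% DMSO, before addition to wells.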

SNU-16 = experiment: Cellular Proliferation Assay (Cell Counting Kit-8), SNU-16; format: cell-based; conditions: Homo sapiens, SNU-16 cells, 72 hours
Summary of the method: as §1

Sequence of Recombinant human FGFR1 (P11362 22-822): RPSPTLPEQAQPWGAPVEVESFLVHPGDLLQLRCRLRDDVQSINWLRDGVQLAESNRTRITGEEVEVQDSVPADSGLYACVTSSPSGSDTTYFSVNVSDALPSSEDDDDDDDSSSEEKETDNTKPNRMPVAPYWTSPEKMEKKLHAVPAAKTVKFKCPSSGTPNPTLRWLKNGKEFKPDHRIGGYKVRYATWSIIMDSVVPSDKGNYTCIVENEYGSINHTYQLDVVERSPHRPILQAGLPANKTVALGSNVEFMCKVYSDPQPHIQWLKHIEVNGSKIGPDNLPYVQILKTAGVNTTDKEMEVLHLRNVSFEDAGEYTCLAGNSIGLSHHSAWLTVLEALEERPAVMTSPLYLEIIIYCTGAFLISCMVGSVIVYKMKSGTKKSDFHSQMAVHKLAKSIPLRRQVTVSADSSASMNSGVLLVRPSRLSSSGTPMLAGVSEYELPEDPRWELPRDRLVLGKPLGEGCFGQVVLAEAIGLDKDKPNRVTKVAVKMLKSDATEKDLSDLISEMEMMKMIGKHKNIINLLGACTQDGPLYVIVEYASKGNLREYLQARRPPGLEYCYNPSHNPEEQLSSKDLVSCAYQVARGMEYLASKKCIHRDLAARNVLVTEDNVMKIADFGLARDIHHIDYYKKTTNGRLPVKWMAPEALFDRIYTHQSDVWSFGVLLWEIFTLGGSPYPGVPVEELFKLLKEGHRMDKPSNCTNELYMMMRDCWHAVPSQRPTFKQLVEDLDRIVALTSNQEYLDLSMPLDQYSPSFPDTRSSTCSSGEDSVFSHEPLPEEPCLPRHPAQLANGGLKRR
Sequence of FGFR3 kinase (P22607 23-806): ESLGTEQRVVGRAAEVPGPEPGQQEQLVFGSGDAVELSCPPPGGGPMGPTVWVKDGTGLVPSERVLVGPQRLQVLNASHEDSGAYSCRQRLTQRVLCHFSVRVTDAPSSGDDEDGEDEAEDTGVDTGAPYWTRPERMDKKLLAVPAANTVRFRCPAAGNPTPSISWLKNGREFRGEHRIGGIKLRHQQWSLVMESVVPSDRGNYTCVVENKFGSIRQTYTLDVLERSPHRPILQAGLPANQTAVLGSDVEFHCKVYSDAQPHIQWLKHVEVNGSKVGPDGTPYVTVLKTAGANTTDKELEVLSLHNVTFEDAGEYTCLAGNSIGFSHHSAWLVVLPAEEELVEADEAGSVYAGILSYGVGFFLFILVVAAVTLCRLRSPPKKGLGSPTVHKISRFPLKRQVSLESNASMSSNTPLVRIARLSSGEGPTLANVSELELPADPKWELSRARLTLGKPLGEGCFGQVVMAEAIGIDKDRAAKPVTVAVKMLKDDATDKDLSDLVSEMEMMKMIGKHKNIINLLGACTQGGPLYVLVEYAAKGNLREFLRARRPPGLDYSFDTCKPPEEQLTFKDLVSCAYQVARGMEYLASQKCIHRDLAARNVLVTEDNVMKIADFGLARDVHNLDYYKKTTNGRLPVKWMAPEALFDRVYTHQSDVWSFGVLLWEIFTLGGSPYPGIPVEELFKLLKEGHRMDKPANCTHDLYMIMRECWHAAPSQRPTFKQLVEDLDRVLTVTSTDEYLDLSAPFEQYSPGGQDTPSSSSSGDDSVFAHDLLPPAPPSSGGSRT
Sequence of Recombinant human FGFR2 (P21802 22-821): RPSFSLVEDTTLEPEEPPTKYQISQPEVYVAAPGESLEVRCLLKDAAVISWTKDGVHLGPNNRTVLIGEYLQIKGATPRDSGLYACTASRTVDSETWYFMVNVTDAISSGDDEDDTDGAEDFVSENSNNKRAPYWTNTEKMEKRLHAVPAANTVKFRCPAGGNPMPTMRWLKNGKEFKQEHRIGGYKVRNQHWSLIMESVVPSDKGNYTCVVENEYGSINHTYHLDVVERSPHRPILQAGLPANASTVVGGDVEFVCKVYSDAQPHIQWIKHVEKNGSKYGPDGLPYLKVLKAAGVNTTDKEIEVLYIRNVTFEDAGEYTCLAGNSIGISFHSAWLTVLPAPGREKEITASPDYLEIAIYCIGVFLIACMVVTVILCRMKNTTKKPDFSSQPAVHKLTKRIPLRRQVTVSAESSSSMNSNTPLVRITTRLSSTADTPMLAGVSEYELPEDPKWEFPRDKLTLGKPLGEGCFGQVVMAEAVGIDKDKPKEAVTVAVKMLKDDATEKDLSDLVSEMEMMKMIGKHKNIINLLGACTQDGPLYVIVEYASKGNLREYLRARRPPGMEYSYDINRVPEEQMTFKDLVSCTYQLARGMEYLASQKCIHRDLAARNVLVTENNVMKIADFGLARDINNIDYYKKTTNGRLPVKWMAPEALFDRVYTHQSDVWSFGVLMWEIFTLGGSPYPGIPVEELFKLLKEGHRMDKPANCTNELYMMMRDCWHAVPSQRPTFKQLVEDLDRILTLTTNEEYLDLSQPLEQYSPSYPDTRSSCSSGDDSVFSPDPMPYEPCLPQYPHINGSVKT

IC50 (Recombinant human FGFR2) [nM] | IC50 (FGFR3 kinase) [nM] | IC50 (Recombinant human FGFR1) [nM] | IC50 (SNU-16) [nM] | Compound | IC50 (RT-112) [nM] | IC50 (KG-1) [nM]
9 | 10 | 27 | 19 | CNC(=O)c1cc(COc2cnc(Nc3cnn(C)c3)nc2)c(F)c(OC)c1 [Compound 182] | 33 | 8
5 | 9 | 6 | 14 | CNC(=O)c1cc(CCc2cnc(Nc3ccc(N4CCNCC4)cc3)nc2)c(Cl)c(OC)c1 [Compound 196] | 20 | 51
5 | 10 | 8 | 6 | CNC(=O)c1cc(COc2cnc(Nc3ccc(N4CCNCC4)cc3)nc2)c(F)c(OC)c1 [Compound 188] | 12 | 20
5 | 11 | 8 | 17 | CNC(=O)c1cc(COc2cnc(Nc3ccc(N4CCNC(C)(C)C4)cc3)nc2)c(F)c(OC)c1 [Compound 193] | 21 | 62
9 | 7 | 18 | 28 | CNC(=O)c1cc(CCc2cnc(Nc3ccc(N4CCOCC4)cc3)nc2)c(F)c(OC)c1 [Compound 11] | 34 | 40
12 | 27 | 20 | 29 | CNC(=O)c1cc(CCc2cnc(Nc3ccc(C)nc3)nc2)c(F)c(OC)c1 [Compound 26] | 93 | 48
24 | 38 | 58 | 94 | CNC(=O)c1cc(CCc2cnc(Nc3ccc4nnc(COC)n4c3)nc2)c(F)c(OC)c1 [Compound 72] | 554 | 195
6 | 6 | 9 | 20 | CNC(=O)c1cc(CCc2cnc(Nc3ccc(N4CCNC(C)(C)C4)cc3)nc2)c(Cl)c(OC)c1 [Compound 200] | 34 | 91
6 | 12 | 11 | 22 | CNC(=O)c1cc(CCc2cnc(Nc3ccc(CN4CCOCC4)cc3)nc2)c(F)c(OC)c1 [Compound 97] | 159 | 26
3 | 2 | 2 | 4 | CCN1CCN(c2ccc(Nc3ncc(CCc4cc(C(=O)NOC)cc(OC)c4F)cn3)cc2)CC1 [Compound 55] | 16 | 3
3 | 20 | 8 | 30 | CNC(=O)c1cc(CCc2cnc(Nc3cccc(N4CCOCC4)c3)nc2)c(F)c(OC)c1 [Compound 38] | 86 | 28

Further lines, the compound ahead of its results:

Compound | IC50 (Recombinant human FGFR2) [nM] | IC50 (FGFR3 kinase) [nM] | IC50 (Recombinant human FGFR1) [nM] | IC50 (SNU-16) [nM] | IC50 (RT-112) [nM] | IC50 (KG-1) [nM]
CNC(=O)c1cc(CCc2cnc(Nc3ccc(CN4CCOCC4)cn3)nc2)c(F)c(OC)c1 [Compound 92, 4-fluoro-3-methoxy-N-methyl-5-(2-(2-((5-(morpholinomethyl)pyridin-2-yl)amino)pyrimidin-5-yl)ethyl)benzamide] | 40 | 198 | 164 | 238 | 831 | 255
CNC(=O)c1cc(CCc2cnc(Nc3cnn(C(C)C)c3)nc2)c(Cl)c(OC)c1 [Compound 121] | 6 | 15 | 9 | 18 | 65 | 7
CONC(=O)c1cc(CCc2cnc(Nc3ccc(F)cc3)nc2)cc(OC)c1 [Compound 104] | 9 | 44 | 15 | 38 | 142 | 53
CNC(=O)c1cc(CCc2cnc(Nc3ccc(C(=O)N4CCN(C)CC4)cc3)nc2)c(Cl)c(OC)c1 [Compound 90] | 5 | 7 | 11 | 9 | 26 | 31
CNC(=O)c1cc(CCc2cnc(Nc3cnn(CCOC)c3)nc2)c(F)c(OC)c1 [Compound 120] | 7 | 17 | 15 | 31 | 165 | 32
CNC(=O)c1cc(CCc2cnc(Nc3cnn(CCCN4CCCC4)c3)nc2)c(F)c(OC)c1 [Compound 138] | 7 | 8 | 9 | 32 | 202 | 617
CNC(=O)c1cc(CCc2cnc(Nc3cnn(C)c3)nc2)c(Cl)c(OC)c1 [Compound 146] | 10 | 14 | 12 | 19 | 142 | 9
CONC(=O)c1cc(CCc2cnc(Nc3ccc4nccn4c3)nc2)cc(OC)c1 [Compound 65] | 28 | 112 | 48 | 55 | 296 | 203
CNC(=O)c1cc(CCc2cnc(Nc3cnn(CC4CCN(C)CC4)c3)nc2)c(Cl)c(OC)c1 [Compound 154] | 5 | 9 | 12 | 16 | 21 | 370
CCn1cc(Nc2ncc(CCc3cc(OC)cc(C(=O)NC)c3F)cn2)cn1 [Compound 27] | 42 | 21 | 256 | 293 | 402 | 340
CCn1cc(Nc2ncc(CCc3cc(C(=O)NC)cc(OC)c3Cl)cn2)cn1 [Compound 115] | 6 | 11 | 14 | 19 | 53 | 12
CCn1cc(Nc2ncc(CCc3cc(C(=O)NC)cc(OC)c3Br)cn2)cn1 [Compound 83] | 9 | 35 | 15 | 55 | 201 | 53
CNC(=O)c1cc(CCc2cnc(Nc3cccnc3OC)nc2)c(F)c(OC)c1 [Compound 63] | 27 | 243 | 195 | 419 | 895 | 427
CNC(=O)c1cc(CCc2cnc(Nc3cnn([C@H]4CCCNC4)c3)nc2)c(F)c(OC)c1 [Compound 163] | 6 | 8 | 7 | 60 | 584 | 201
CNC(=O)c1cc(CCc2cnc(Nc3cnn(C4CCCC4)c3)nc2)c(F)c(OC)c1 [Compound 122] | 6 | 9 | 14 | 13 | 67 | 20
CNC(=O)c1cc(CCc2cnc(Nc3cnn(-c4ccc(C)nc4)c3)nc2)c(Cl)c(OC)c1 [Compound 152] | 12 | 38 | 19 | 29 | 88 | 56
CNC(=O)c1cc(CCc2cnc(Nc3cnn(C4CN(C)C4)c3)nc2)c(F)c(OC)c1 [Compound 166] | 13 | 15 | 20 | 57 | 592 | 69
CCN(CC)CCCn1cc(Nc2ncc(CCc3cc(C(=O)NC)cc(OC)c3F)cn2)cn1 [Compound 13] | 10 | 7 | 29 | 21 | 59 | 498
CNC(=O)c1cc(CCc2cnc(Nc3cn[nH]c3)nc2)c(F)c(OC)c1 [Compound 102] | 7 | 18 | 12 | 55 | 461 | 33
CNC(=O)c1cc(CCc2cnc(Nc3cnn(C4CCOCC4)c3)nc2)c(F)c(OC)c1 [Compound 132] | 6 | 6 | 12 | 10 | 59 | 20
CCN(CC)CCCn1cc(Nc2ncc(CCc3cc(C(=O)NC)cc(OC)c3Cl)cn2)cn1 [Compound 88] | 6 | 9 | 15 | 13 | 27 | 214
